The values that follow come from patent US20200069691A1, “HETEROCYCLIC COMPOUNDS AS HIV PROTEASE INHIBITORS” (Merck Sharp & Dohme Corp., priority 2016, published 2020).

Each structure is given as a SMILES string.

This test concerns the target T1, wild-type HIV-1 protease (Human immunodeficiency virus type 1 group M subtype B, UniProt P04585).
T1 construct: Escherichia coli expressed wild-type HIV-1 protease protein
Nature of the test: Assay for Inhibition of Microbial Expressed HIV Protease (peptide substrate cleavage, LC-MS/MS readout). In kind it is biochemical. To be noted: E. coli expressed wild-type HIV-1 protease, mean of at least two independent experiments, read-out: HIV Pr Enzyme HIV1 PR IC50. Put shortly:
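E. coli-expressed wild-type HIV-1 protease ([…]) was preincubated with inhibitor 30 min at room temperature in pH 5.5 acetate buffer (100 mM NaCl, 0.1% BSA). Then 400 μM octapeptide substrate was added and reacted 1 h at 30 °C; inhibition came from LC-MS/MS product peak areas, mean of ≥2 experiments.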

With `N=C1N[C@](C[C@@H]2CCOC2)(c2ccccc2)C(=O)N1Cc1ccc(C(F)(F)F)c(C(=O)N2Cc3nccnc3C2)c1` [Compound 128, (5R)-3-[3-(5,7-dihydro-6H-pyrrolo[3,4-b]pyrazin-6-ylcarbonyl)-4-(trifluoromethyl)-benzyl]-2-imino-5-phenyl-5-[(3R)-tetrahydrofuran-3-ylmethyl]-imidazolidin-4-one], the half-inhibitory concentration (IC50) is 67.9 nM.

Take `N=C1N[C@](CCC2CC2)(c2ccc(F)cc2)C(=O)N1[C@@H]1CCCc2ccc(C(=O)N3Cc4nccnc4C3)cc21` [Compound 129, (5R)-5-(2-cyclopropylethyl)-3-[(1R)-7-(5,7-dihydro-6H-pyrrolo[3,4-b]pyrazin-6-ylcarbonyl)-1,2,3,4-tetrahydronaphthalen-1-yl]-5-(4-fluorophenyl)-2-iminoimidazolidin-4-one]: the IC50 turned out to be 70.8 nM.

On to `N=C1NC(CCC2CC2)(c2ccc(C(F)(F)F)cc2)C(=O)N1Cc1ccc(C(F)(F)F)c(C(=O)N2CCn3c(nnc3C(F)(F)F)C2)c1` (centres unmarked) [Compound 131, 5-(2-cyclopropylethyl)-2-imino-5-[4-(trifluoromethyl)phenyl]-3-[4-(trifluoromethyl)-3-{[3-(trifluoromethyl)-5,6-dihydro-[1,2,4]triazolo[4,3-a]pyrazin-7(8H)-yl]carbonyl}benzyl] imidazolidin-4-one], for which the IC50 came out at 84.9 nM.

Regarding `N=C1N[C@](CCCC(F)(F)F)(c2ccc(F)cc2)C(=O)N1Cc1ccc(C(F)(F)F)c(C(=O)N2CCN3c4ccccc4CC3C2)c1` (stereo partly drawn) [Compound 132, (5R)-5-(4-fluorophenyl)-2-imino-3-[3-(3,4,10,10a-tetrahydropyrazino-[1,2-a]indol-2(1H)-ylcarbonyl)-4-(trifluoromethyl)benzyl]-5-(4,4,4-trifluorobutyl)imidazolidin-4-one], the IC50 was 86.6 nM.

For `N=C1N[C@](CCCC(F)(F)F)(c2ccc(F)cc2)C(=O)N1Cc1ccc(C(F)(F)F)c(C(=O)N2Cc3cnc(-c4cnn(-c5cccc(Cl)c5)c4)nc3C2)c1` [Compound 133, (5R)-3-[3-({2-[1-(3-chlorophenyl)-1H-pyrazol-4-yl]-5,7-dihydro-6H-pyrrolo[3,4-d]pyrimidin-6-yl}carbonyl)-4-(trifluoromethyl)-benzyl]-5-(4-fluorophenyl)-2-imino-5-(4,4,4-trifluorobutyl)imidazolidin-4-one], the IC50 was 86.8 nM.

`N#Cc1ncc2c(n1)CN(C(=O)c1cc(CN3C(=N)NC(c4ccc(F)cc4)(c4ccc(F)cc4)C3=O)ccc1C(F)(F)F)C2` [Compound 134, 6-{[5-{[4,4-bis(4-fluorophenyl)-2-imino-5-oxoimidazolidin-1-yl]methyl}-2-(trifluoromethyl)-phenyl]carbonyl}-6,7-dihydro-5H-pyrrolo[3,4-d] pyrimidine-2-carbonitrile]: the IC50 came out at 1.08 nM.

Regarding `COC(=O)Nc1ncc2c(n1)CN(C(=O)c1cc([C@@H](C)N3C(=N)N[C@](CCC(C)C)(c4ccccc4)C3=O)ccc1C(F)(F)F)C2` [Compound 135, methyl (6-{[5-{(1R)-1-[(4R)-2-imino-4-(3-methylbutyl)-5-oxo-4-phenylimidazolidin-1-yl]ethyl}-2-(trifluoromethyl)phenyl]carbonyl}-6,7-dihydro-5H-pyrrolo[3,4-d]pyrimidin-2-yl)carbamate], the IC50 was determined as 1.28 nM.

For `N#Cc1ncc2c(n1)CN(C(=O)c1cc(CN3C(=N)NC(c4ccccc4)(c4ccccc4)C3=O)ccc1C(F)(F)F)C2` [Compound 136, 6-({5-[(2-imino-5-oxo-4,4-diphenylimidazolidin-1-yl)methyl]-2-(trifluoromethyl)phenyl}-carbonyl)-6,7-dihydro-5H-pyrrolo[3,4-d]pyrimidine-2-carbonitrile], the IC50 stood at 1.81 nM.

Take `COC(=O)Nc1ncc2c(n1)CN(C(=O)c1cc(CN3C(=N)NC(CCC(C)C)(c4ccccc4)C3=O)ccc1C(F)(F)F)C2` (centres unmarked) [Compound 137, methyl (6-{[5-{[2-imino-4-(3-methylbutyl)-5-oxo-4-phenylimidazolidin-1-yl]methyl}-2-(trifluoromethyl)phenyl]carbonyl}-6,7-dihydro-5H-pyrrolo[3,4-d]pyrimidin-2-yl)carbamate]: the IC50 turned out to be 1.88 nM.

For the molecule `N=C1NC(c2ccc(F)cc2)(c2ccc(F)cc2)C(=O)N1Cc1ccc(C(F)(F)F)c(C(=O)N2Cc3cncnc3C2)c1` [Compound 138, 3-[3-(5,7-dihydro-6H-pyrrolo[3,4-d]pyrimidin-6-ylcarbonyl)-4-(trifluoromethyl)benzyl]-5,5-bis(4-fluorophenyl)-2-iminoimidazolidin-4-one], the IC50 was 2.78 nM.

For `N=C1NC(c2ccc(F)cc2)(c2ccc(F)cc2)C(=O)N1Cc1ccc(C(F)(F)F)c(C(=O)N2Cc3nccnc3C2)c1` [Compound 139, 3-[3-(5,7-dihydro-6H-pyrrolo[3,4-b]pyrazin-6-ylcarbonyl)-4-(trifluoromethyl)benzyl]-5,5-bis(4-fluorophenyl)-2-iminoimidazolidin-4-one], the IC50 was determined as 2.93 nM.

Regarding `CC(C)CC1(c2ccccc2)NC(=N)N(Cc2ccc(C(F)(F)F)c(C(=O)N3Cc4cnc(C#N)nc4C3)c2)C1=O` (centres unmarked) [Compound 140, 6-{[5-{[2-imino-4-(2-methylpropyl)-5-oxo-4-phenylimidazolidin-1-yl]methyl}-2-(trifluoromethyl)phenyl]carbonyl}-6,7-dihydro-5H-pyrrolo[3,4-d]pyrimidine-2-carbonitrile], the IC50 worked out at 2.93 nM.

For `CC(C)CC[C@]1(c2ccccc2)NC(=N)N([C@H](C)c2ccc(C(F)(F)F)c(C(=O)N3Cc4nccnc4C3)c2)C1=O` [Compound 141, (5R)-3-{(1R)-1-[3-(5,7-dihydro-6H-pyrrolo[3,4-b]pyrazin-6-ylcarbonyl)-4-(trifluoromethyl)phenyl]ethyl}-2-imino-5-(3-methylbutyl)-5-phenylimidazolidin-4-one], the IC50 worked out at 3.04 nM.

Take `CC(C)CC1(c2ccccc2)NC(=N)N(Cc2ccc(C(F)(F)F)c(C(=O)N3Cc4nccnc4C3)c2)C1=O` (centres unmarked) [Compound 142, 3-[3-(5,7-dihydro-6H-pyrrolo[3,4-b]pyrazin-6-ylcarbonyl)-4-(trifluoromethyl)benzyl]-2-imino-5-(2-methylpropyl)-5-phenylimidazolidin-4-one]: the IC50 is 3.23 nM.

For `N=C1NC(c2ccccc2)(c2ccccc2)C(=O)N1Cc1ccc(C(F)(F)F)c(C(=O)N2Cc3nccnc3C2)c1` [Compound 143, 3-[3-(5,7-dihydro-6H-pyrrolo[3,4-b]pyrazin-6-ylcarbonyl)-4-(trifluoromethyl)benzyl]-2-imino-5,5-diphenylimidazolidin-4-one], the IC50 was determined as 3.43 nM.

As for `CC(C)CCC1(c2ccc(F)cc2)NC(=N)N(Cc2ccc(C(F)(F)F)c(C(=O)N3Cc4cncnc4C3)c2)C1=O` (centres unmarked) [Compound 144, 3-[3-(5,7-dihydro-6H-pyrrolo[3,4-d]pyrimidin-6-ylcarbonyl)-4-(trifluoromethyl)benzyl]-5-(4-fluorophenyl)-2-imino-5-(3-methylbutyl)imidazolidin-4-one], the IC50 came out at 3.73 nM.

In the case of `N=C1NC(c2ccccc2)(c2ccccc2)C(=O)N1Cc1ccc(C(F)(F)F)c(C(=O)N2Cc3cncnc3C2)c1` [Compound 145, 3-[3-(5,7-dihydro-6H-pyrrolo[3,4-d]pyrimidin-6-ylcarbonyl)-4-(trifluoromethyl)benzyl]-2-imino-5,5-diphenylimidazolidin-4-one], the IC50 amounted to 4.03 nM.
